Laboratory results from patent US9890185B2, “Urea derivatives useful as kinase inhibitors” (Respivert Limited, priority 2013, dated 2018).

What was measured:
[1] = tested on: PBMCs; assay: IFN gamma release in CD3/CD28 stimulated PBMC cells (assay c); assay type: cell-based; settings: Homo sapiens, read-out: IC50 Values for Inhibition of Cytokine Release, PBMCs IFNγ
Outline: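 Steps: PBMCs separated from healthy whole blood by density gradient; seeded onto anti-CD3/CD28 coating (0.3 and 3 μg/mL respectively); compound added; incubated 3 days in standard tissue culture; supernatant cytokines quantified by sandwich ELISA, IC50 fitted.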

[2] = tested on: d-U937 cells; assay: Accumulation of β catenin in d-U937 cells (assay m); assay type: cell-based, human; settings: percentage relative to Reference Compound at 1 μg/mL
Outline: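 Read-out: colourimetric cell-based immunoassay for endogenous β-catenin (OD450 minus 655 reference), normalised to crystal violet absorbance at 595 nm. Test compound or vehicle was applied for 18 hr to U937 monocytes first differentiated with PMA (100 ng/mL) for 48–72 hr.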

[3] = tested on: HT29 cells; assay: IL-1β-induced IL-8 release in HT29 cells (assay d); assay type: cell-based; settings: Homo sapiens, HT-29; IL-1β-stimulated HT29 cells; read-out: IC50 Values for Inhibition of Cytokine Release, HT29 cells IL-8
Experimental: HT29 cells, a human colon adenocarcinoma cell line, are plated in a 96 well plate (24 hrs) and pre-treated with compounds at the desired concentration for 2 hours before addition of 5 ng/mL of IL-1β (Abcam) for 24 hours. Supernatants are harvested for IL-8 quantification by Sandwich ELISA (Duo-set, R&D System). The IC50 is determined from the dose response curve.

| IC50 [3] | SMILES | IC50 [1] | % β-catenin induction ([2]; test compound 1 μg/mL) | % β-catenin induction ([2]; test compound 5 μg/mL) | % β-catenin induction ([2]; test compound 10 μg/mL) |
| --- | --- | --- | --- | --- | --- |
| 4.2 nM | COCCOCCOCCOc1cc(Nc2cc(Oc3ccc(NC(=O)Nc4cc(C(C)(C)C)cc(CS(C)(=O)=O)c4OC)c4ccccc34)ccn2)cc(OC)c1 [15(a), 1-(5-(tert-butyl)-2-methoxy-3-((methylsulfonyl)methyl)phenyl)-3-(4-((2-((3-methoxy-5-(2-(2-(2-methoxyethoxy)ethoxy)ethoxy)phenyl)amino)pyridin-4-yl)oxy)naphthalen-1-yl)urea] | 27.2 nM | −4.0% | −5.0% | −3.0% |
| – | COc1c(NC(=O)Nc2ccc(Oc3ccnc(Nc4cccnc4)c3)c3ccccc23)cc(C(C)(C)C)cc1P(C)(C)=O [15(ad), 1-(5-(tert-butyl)-3-(dimethylphosphoryl)-2-methoxyphenyl)-3-(4-((2-(pyridin-3-ylamino)pyridin-4-yl)oxy)naphthalen-1-yl)urea] | 16.2 nM | 12.0% | 36.0% | 49.0% |
| – | COc1cc(F)cc(Nc2cc(Oc3ccc(NC(=O)Nc4cc(C(C)(C)C)cc(P(C)(C)=O)c4OC)c4ccccc34)ccn2)c1 [15(an), 1-(5-(tert-butyl)-3-(dimethylphosphoryl)-2-methoxyphenyl)-3-(4-((2-((3-fluoro-5-methoxyphenyl)amino)pyridin-4-yl)oxy)naphthalen-1-yl)urea] | 6.2 nM | 1.5% | 11.5% | 13.5% |
| – | COc1c(NC(=O)Nc2ccc(Oc3ccnc(Nc4cnn(C)n4)n3)c3ccccc23)cc(C(C)(C)C)cc1P(C)(C)=O [15(x), 1-(5-(tert-butyl)-3-(dimethylphosphoryl)-2-methoxyphenyl)-3-(4-((2-((2-methyl-2H-1,2,3-triazol-4-yl)amino)pyrimidin-4-yl)oxy)naphthalen-1-yl)urea] | 35.9 nM | 7.0% | 4.0% | 4.0% |
| – | COc1c(CC(N)=O)cc(C(C)(C)C)cc1NC(=O)Nc1ccc(Oc2ccnc(NCc3ccccn3)c2)c2ccccc12 [38(d), 2-(5-(tert-Butyl)-2-methoxy-3-(3-(4-((2-((pyridin-2-ylmethyl)amino)pyridin-4-yl)oxy)naphthalen-1-yl)ureido)phenyl)acetamide] | 106 nM | 2.5% | 19.5% | 30.0% |
| – | CNC(=O)Cc1cc(C(C)(C)C)cc(NC(=O)Nc2ccc(Oc3ccnc(Nc4cccc(OC)c4)c3)c3ccccc23)c1OC [38(h), 2-(5-(tert-Butyl)-2-methoxy-3-(3-(4-((2-((3-methoxyphenyl)amino)pyridin-4-yl)oxy)naphthalen-1-yl)ureido)phenyl)-N-methylacetamide] | 17.7 nM | 1.5% | 4.0% | 6.0% |
| – | COc1cc(Nc2cc(Oc3ccc(NC(=O)Nc4cc(C(C)(C)C)cc(CC(N)=O)c4OC)c4ccccc34)ccn2)ccn1 [38(k), 2-(5-(tert-Butyl)-2-methoxy-3-(3-(4-((2-((2-methoxypyridin-4-yl)amino)pyridin-4-yl)oxy)naphthalen-1-yl)ureido)phenyl)acetamide] | 14.6 nM | 10.5% | 39.5% | 52.0% |
| – | COc1cc(CO)cc(Nc2cc(Oc3ccc(NC(=O)Nc4cc(C(C)(C)C)cc(CC(N)=O)c4OC)c4ccccc34)ccn2)c1 [38(m), 2-(5-(tert-Butyl)-3-(3-(4-((2-((3-(hydroxymethyl)-5-methoxyphenyl)amino)pyridin-4-yl)oxy)naphthalen-1-yl)ureido)-2-methoxyphenyl)acetamide] | 7 nM | 3.0% | 23.0% | 37.0% |
| – | COc1cncc(Nc2cc(Oc3ccc(NC(=O)Nc4cc(C(C)(C)C)cc(CC(N)=O)c4OC)c4ccccc34)ccn2)c1 [38(n), 2-(5-(tert-butyl)-2-methoxy-3-(3-(4-((2-((5-methoxypyridin-3-yl)amino)pyridin-4-yl)oxy)naphthalen-1-yl)ureido)phenyl)acetamide] | 14.1 nM | 2.0% | 21.0% | 23.5% |
| – | COc1c(CC(N)=O)cc(C(C)(C)C)cc1NC(=O)Nc1ccc(Oc2ccnc(Nc3ccn(C)n3)c2)c2ccccc12 [38(o), 2-(5-(tert-Butyl)-2-methoxy-3-(3-(4-((2-((1-methyl-1H-pyrazol-3-yl)amino)pyridin-4-yl)oxy)naphthalen-1-yl)ureido)phenyl)acetamide] | 7.8 nM | 13.0% | 38.0% | 35.0% |
| – | COc1c(CNC(C)=O)cc(C(C)(C)C)cc1NC(=O)Nc1ccc(Oc2ccnc(NCc3ccccn3)c2)c2ccccc12 [38(q), N-(5-(tert-Butyl)-2-methoxy-3-(3-(4-((2-((pyridin-2-ylmethyl)amino)pyridin-4-yl)oxy)naphthalen-1-yl)ureido)benzyl)acetamide] | 26.1 nM | 11.5% | 41.5% | 57.5% |
| – | COCCOCCOCCOc1cc(Nc2nccc(Oc3ccc(NC(=O)Nc4cc(C(C)(C)C)cc(C(=O)NCCN5CCOCC5)c4OC)c4ccccc34)n2)cc(OC)c1 [Example 8, 5-(tert-Butyl)-2-methoxy-3-(3-(4-((2-((3-methoxy-5-(2-(2-(2-methoxyethoxy)ethoxy)-ethoxy)phenyl)amino)pyrimidin-4-yl)oxy)naphthalen-1-yl)ureido)-N-(2-morpholinoethyl)-benzamide] | 2.2 nM | 2.5% | 22.5% | 26.5% |
| – | COc1c(NC(=O)Nc2ccc(Oc3ccnc(Nc4ccccc4)c3)c3ccccc23)cc(C(C)(C)C)cc1C(=O)NCCN1CCOCC1 [Example 14, 5-(tert-Butyl)-2-methoxy-N-(2-morpholinoethyl)-3-(3-(4-((2-(phenylamino)pyridin-4-yl)oxy)naphthalen-1-yl)ureido)benzamide] | 16.3 nM | −0.5% | 22.0% | 25.5% |
| – | COc1c(CP(C)(C)=O)cc(C(C)(C)C)cc1NC(=O)Nc1ccc(Oc2ccnc(Nc3ccccc3)c2)c2ccccc12 [Example 24, 1-(5-(tert-Butyl)-3-((dimethylphosphoryl)methyl)-2-methoxyphenyl)-3-(4-((2-(phenylamino)-pyridin-4-yl)oxy)naphthalen-1-yl)urea] | 64 nM | −3.0% | 13.0% | 16.5% |
| – | COc1c(C[S+](C)[O-])cc(C(C)(C)C)cc1NC(=O)Nc1ccc(Oc2ccnc(Nc3ccccc3)c2)c2ccccc12 (centres unmarked) [Example 25, 1-(5-(tert-Butyl)-2-methoxy-3-((methylsulfinyl)methyl)phenyl)-3-(4-((2-(phenylamino)pyridin-4-yl)oxy)naphthalen-1-yl)urea] | 29.5 nM | 1.0% | 8.0% | 17.5% |
| – | COc1c(NC(=O)Nc2ccc(Oc3ccnc(Nc4cc(C)cc(C)c4)c3)c3ccccc23)cc(C(C)(C)C)cc1P(C)(C)=O [Example 28, 1-(5-(tert-Butyl)-3-(dimethylphosphoryl)-2-methoxyphenyl)-3-(4-((2-((3,5-dimethylphenyl)-amino)pyridin-4-yl)oxy)naphthalen-1-yl)urea] | 1.4 nM | 3.0% | 6.7% | 11.3% |
| – | COc1cc(Nc2cc(Oc3ccc(NC(=O)Nc4cc(C(C)(C)C)cc(CC(N)=O)c4OC)c4ccccc34)ccn2)cc(OC)c1 [Example 30, 2-(5-(tert-Butyl)-3-(3-(4-((2-((3,5-dimethoxyphenyl)amino)pyridin-4-yl)oxy)naphthalen-1-yl)ureido)-2-methoxyphenyl)acetamide] | 6.4 nM | 6.5% | 23.5% | 1.0% |
| – | COc1cccc(Nc2cc(Oc3ccc(NC(=O)Nc4cc(C(C)(C)C)cc(CC(N)=O)c4OC)c4ccccc34)ccn2)c1 [Example 33, 2-(5-(tert-Butyl)-2-methoxy-3-(3-(4-((2-((3-methoxyphenyl)amino)pyridin-4-yl)oxy)naphthalen-1-yl)ureido)phenyl)acetamide] | 11 nM | −1.0% | 3.5% | 9.5% |
| – | COc1c(CNC(C)=O)cc(C(C)(C)C)cc1NC(=O)Nc1ccc(Oc2ccnc(Nc3ccccc3)c2)c2ccccc12 [Example 35, N-(5-(tert-Butyl)-2-methoxy-3-(3-(4-((2-(phenylamino)pyridin-4-yl)oxy)naphthalen-1-yl)ureido)benzyl)acetamide] | 10.9 nM | 5.5% | 16.5% | 23.5% |
